Active and inactive are the calls of the source. No cut-off for these calls is given here.
System: Mus musculus
Assay: Toxicity in Plasmodium berghei ANKA infected Swiss mouse assessed as weight loss at 50 mg/kg, ip qd for 4 days
Assay type: organism-based
Set-up: dose 50 mg/kg, route intraperitoneal
Conditions: in vivo, 96 h

Structure (SMILES) | Activity
Cn1c2nc3ccccc3c-2c(NCCCNC(=O)Nc2ccccc2)c2ccccc21 | Toxic
Cn1c2nc3ccccc3c-2c(NCCCNC(=S)Nc2ccccc2)c2ccccc21 | Toxic
Cn1c2nc3ccccc3c-2c(NCCCNC(=O)Nc2ccccc2)c2cc(Cl)ccc21 | Toxic

System: Plasmodium berghei
Assay: Antimalarial activity against Plasmodium berghei ANKA infected in Swiss mouse assessed as reduction parasitaemia at 50 mg/kg, ip qd for 4 days measured 24 hrs after last treatment
Assay type: functional
Conditions: not given

Structure (SMILES) | Activity
Cn1c2nc3ccccc3c-2c(NCCCNC(=O)Nc2ccccc2)c2cc(Cl)ccc21 | inactive

Same assay, conditions: route intraperitoneal

Structure (SMILES) | Activity
Cn1c2nc3ccccc3c-2c(NCCCNC(=O)Nc2ccccc2)c2ccccc21 | 22.1%
Cn1c2nc3ccccc3c-2c(NCCCNC(=S)Nc2ccccc2)c2ccccc21 | 15.4%

System: Leishmania donovani
Assay: Antiparasitic activity against Leishmania donovani MHOM/ET/67/L82 axenic amastigotes after 70 hrs by Alamar blue assay
Assay type: functional, organism-based
Conditions: MHOM/ET/67/L82, 70 h

Structure (SMILES) | IC50
Cn1c2nc3ccccc3c-2c(NCCCNS(=O)(=O)c2ccccc2)c2ccccc21 | 58 µM
Cn1c2nc3ccccc3c-2c(NCCCNC(=O)Nc2ccccc2)c2ccccc21 | 97.5 µM
Cn1c2nc3ccccc3c-2c(NCCCNC(=S)Nc2ccccc2)c2ccccc21 | 79.2 µM
CCCCCCCCCCCCCCCCOP(=O)([O-])OCC[N+](C)(C)C [MILTEFOSINE] | 0.361 µM
Cn1c2nc3ccccc3c-2c(NCCCN2C(=O)CCSC2c2ccc(Cl)cc2)c2ccccc21 (stereo unspecified) | 13 µM
CN(C)c1ccc(C2SCC(=O)N2CCCNc2c3c4ccccc4nc-3n(C)c3ccccc23)cc1 (stereo unspecified) | 26.1 µM
Cn1c2nc3ccccc3c-2c(NCCCN2C(=O)c3ccccc3SC2c2ccc(Cl)cc2)c2ccccc21 (stereo unspecified) | 9.75 µM

System: Trypanosoma cruzi
Assay: Antiparasitic activity against Trypanosoma cruzi Tulahuen C2C4 expressing beta-galactosidase infected in rat L6 cells after 96 hrs
Assay type: functional, organism-based
Conditions: Tulahuen C2C4, L6, 96 h

Structure (SMILES) | IC50
Cn1c2nc3ccccc3c-2c(NCCCNS(=O)(=O)c2ccccc2)c2ccccc21 | 1600 nM
Cn1c2nc3ccccc3c-2c(NCCCNC(=O)Nc2ccccc2)c2ccccc21 | 10600 nM
O=C(Cn1ccnc1[N+](=O)[O-])NCc1ccccc1 [BENZNIDAZOLE] | 1610 nM
Cn1c2nc3ccccc3c-2c(NCCCNC(=S)Nc2ccccc2)c2ccccc21 | 6120 nM
Cn1c2nc3ccccc3c-2c(NCCCN2C(=O)CCSC2c2ccc(Cl)cc2)c2ccccc21 (stereo unspecified) | 3180 nM
CN(C)c1ccc(C2SCC(=O)N2CCCNc2c3c4ccccc4nc-3n(C)c3ccccc23)cc1 (stereo unspecified) | 2730 nM
Cn1c2nc3ccccc3c-2c(NCCCN2C(=O)c3ccccc3SC2c2ccc(Cl)cc2)c2ccccc21 (stereo unspecified) | 2360 nM

System: Trypanosoma brucei rhodesiense
Assay: Antiparasitic activity against Trypanosoma brucei rhodesiense STIB900 bloodstream forms incubated for 70 hrs by Alamar blue assay
Assay type: functional, organism-based
Conditions: STIB900, 70 h

Structure (SMILES) | IC50
Cn1c2nc3ccccc3c-2c(NCCCNS(=O)(=O)c2ccccc2)c2ccccc21 | 164 nM
Cn1c2nc3ccccc3c-2c(NCCCNC(=O)Nc2ccccc2)c2ccccc21 | 607 nM
Cn1c2nc3ccccc3c-2c(NCCCNC(=S)Nc2ccccc2)c2ccccc21 | 589 nM
Cn1c2nc3ccccc3c-2c(NCCCN2C(=O)CCSC2c2ccc(Cl)cc2)c2ccccc21 (stereo unspecified) | 548 nM
CN(C)c1ccc(C2SCC(=O)N2CCCNc2c3c4ccccc4nc-3n(C)c3ccccc23)cc1 (stereo unspecified) | 1370 nM
Cn1c2nc3ccccc3c-2c(NCCCN2C(=O)c3ccccc3SC2c2ccc(Cl)cc2)c2ccccc21 (stereo unspecified) | 868 nM

System: not listed separately
Assay: Selectivity index, ratio of IC50 for rat L6 cells to IC50 for chloroquine-resistant Plasmodium falciparum K1
Assay type: toxicity, cell-based
Conditions: read-out: Ratio IC50

Structure (SMILES) | selectivity ratio
Cn1c2nc3ccccc3c-2c(NCCCNS(=O)(=O)c2ccccc2)c2ccccc21 | 0.5
Cn1c2nc3ccccc3c-2c(NCCCNC(=O)Nc2ccccc2)c2cc(F)ccc21 | 11.4
Cn1c2nc3ccccc3c-2c(NCCCNC(=O)Nc2ccccc2)c2cc(C(F)(F)F)ccc21 | 26.3
Cn1c2nc3ccccc3c-2c(NCCCNC(=O)Nc2ccccc2)c2cc(Br)ccc21 | 238
Cn1c2nc3ccccc3c-2c(NCCCNC(=O)Nc2ccccc2)c2ccccc21 | 132
Cn1c2nc3ccccc3c-2c(NCCCNC(=S)Nc2ccccc2)c2ccccc21 | 11
Cn1c2nc3ccccc3c-2c(NCCCN2C(=O)CCSC2c2ccc(F)cc2)c2ccccc21 (stereo unspecified) | 24.3
Cn1c2nc3ccccc3c-2c(NCCCNC(=O)Nc2ccccc2)c2cc(Cl)ccc21 | 141
Cn1c2nc3ccccc3c-2cc2ccccc21 [NEOCRYPTOLEPINE] | 1.9
Cn1c2nc3ccccc3c-2c(NCCCN2C(=O)CSC2c2ccc(Cl)cc2)c2ccccc21 (stereo unspecified) | 24.2
Cn1c2nc3ccccc3c-2c(NCCCN2C(=O)CCSC2c2ccc(Cl)cc2)c2ccccc21 (stereo unspecified) | 86.6
CN(C)c1ccc(C2SCC(=O)N2CCCNc2c3c4ccccc4nc-3n(C)c3ccccc23)cc1 (stereo unspecified) | 24.8
Cn1c2nc3ccccc3c-2c(NCCCN2C(=O)c3ccccc3SC2c2ccc(Cl)cc2)c2ccccc21 (stereo unspecified) | 51.6

System: Plasmodium falciparum
Assay: Antimalarial activity against chloroquine-resistant Plasmodium falciparum K1 after 72 hrs by [3H]hypoxanthine incorporation assay
Assay type: functional, organism-based
Conditions: not given

Structure (SMILES) | IC50
Cn1c2nc3ccccc3c-2c(NCCCNS(=O)(=O)c2ccccc2)c2ccccc21 | 124 nM
Cn1c2nc3ccccc3c-2c(NCCCNC(=O)Nc2ccccc2)c2cc(F)ccc21 | 313 nM
Cn1c2nc3ccccc3c-2c(NCCCNC(=O)Nc2ccccc2)c2cc(C(F)(F)F)ccc21 | 48.8 nM
Cn1c2nc3ccccc3c-2c(NCCCNC(=O)Nc2ccccc2)c2cc(Br)ccc21 | 11.9 nM
Cn1c2nc3ccccc3c-2c(NCCCNC(=O)Nc2ccccc2)c2ccccc21 | 9.4 nM
Cn1c2nc3ccccc3c-2c(NCCCNC(=S)Nc2ccccc2)c2ccccc21 | 112 nM
Cn1c2nc3ccccc3c-2c(NCCCN2C(=O)CCSC2c2ccc(F)cc2)c2ccccc21 (stereo unspecified) | 112 nM
Cn1c2nc3ccccc3c-2c(NCCCNC(=O)Nc2ccccc2)c2cc(Cl)ccc21 | 21.8 nM
Cn1c2nc3ccccc3c-2cc2ccccc21 [NEOCRYPTOLEPINE] | 1700 nM
Cn1c2nc3ccccc3c-2c(NCCCN2C(=O)CSC2c2ccc(Cl)cc2)c2ccccc21 (stereo unspecified) | 144 nM
Cn1c2nc3ccccc3c-2c(NCCCN2C(=O)CCSC2c2ccc(Cl)cc2)c2ccccc21 (stereo unspecified) | 38.8 nM
CN(C)c1ccc(C2SCC(=O)N2CCCNc2c3c4ccccc4nc-3n(C)c3ccccc23)cc1 (stereo unspecified) | 143 nM
Cn1c2nc3ccccc3c-2c(NCCCN2C(=O)c3ccccc3SC2c2ccc(Cl)cc2)c2ccccc21 (stereo unspecified) | 21.3 nM

System: not listed separately
Assay: Selectivity index, ratio of IC50 for rat L6 cells to IC50 for chloroquine-sensitive Plasmodium falciparum NF54
Assay type: toxicity, cell-based
Conditions: read-out: Ratio IC50

Structure (SMILES) | selectivity ratio
Cn1c2nc3ccccc3c-2c(NCCCNS(=O)(=O)c2ccccc2)c2ccccc21 | 1
Cn1c2nc3ccccc3c-2c(NCCCNC(=O)Nc2ccccc2)c2cc(F)ccc21 | 143
Cn1c2nc3ccccc3c-2c(NCCCNC(=O)Nc2ccccc2)c2cc(C(F)(F)F)ccc21 | 313
Cn1c2nc3ccccc3c-2c(NCCCNC(=O)Nc2ccccc2)c2cc(Br)ccc21 | 706
Cn1c2nc3ccccc3c-2c(NCCCNC(=O)Nc2ccccc2)c2ccccc21 | 58.4
Cn1c2nc3ccccc3c-2c(NCCCNC(=S)Nc2ccccc2)c2ccccc21 | 135
Cn1c2nc3ccccc3c-2c(NCCCN2C(=O)CCSC2c2ccc(F)cc2)c2ccccc21 (stereo unspecified) | 71.6
Cn1c2nc3ccccc3c-2c(NCCCNC(=O)Nc2ccccc2)c2cc(Cl)ccc21 | 1400
Cn1c2nc3ccccc3c-2cc2ccccc21 [NEOCRYPTOLEPINE] | 2
Cn1c2nc3ccccc3c-2c(NCCCN2C(=O)CSC2c2ccc(Cl)cc2)c2ccccc21 (stereo unspecified) | 54.4
Cn1c2nc3ccccc3c-2c(NCCCN2C(=O)CCSC2c2ccc(Cl)cc2)c2ccccc21 (stereo unspecified) | 64.1
CN(C)c1ccc(C2SCC(=O)N2CCCNc2c3c4ccccc4nc-3n(C)c3ccccc23)cc1 (stereo unspecified) | 64.7
Cn1c2nc3ccccc3c-2c(NCCCN2C(=O)c3ccccc3SC2c2ccc(Cl)cc2)c2ccccc21 (stereo unspecified) | 41.3

System: not listed separately
Assay: Toxicity against rat L6 cells after 72 hrs by Alamar blue assay
Assay type: cell-based
Conditions: not given

Structure (SMILES) | IC50 at 72 h
Cn1c2nc3ccccc3c-2c(NCCCNS(=O)(=O)c2ccccc2)c2ccccc21 | 65.2 nM
Cn1c2nc3ccccc3c-2c(NCCCNC(=O)Nc2ccccc2)c2cc(F)ccc21 | 3560 nM
Cn1c2nc3ccccc3c-2c(NCCCNC(=O)Nc2ccccc2)c2cc(C(F)(F)F)ccc21 | 1280 nM
Cn1c2nc3ccccc3c-2c(NCCCNC(=O)Nc2ccccc2)c2cc(Br)ccc21 | 2830 nM
Cn1c2nc3ccccc3c-2c(NCCCNC(=O)Nc2ccccc2)c2ccccc21 | 1240 nM
Cn1c2nc3ccccc3c-2c(NCCCNC(=S)Nc2ccccc2)c2ccccc21 | 1230 nM
Cn1c2nc3ccccc3c-2c(NCCCN2C(=O)CCSC2c2ccc(F)cc2)c2ccccc21 (stereo unspecified) | 2730 nM
Cn1c2nc3ccccc3c-2c(NCCCNC(=O)Nc2ccccc2)c2cc(Cl)ccc21 | 3080 nM
Cn1c2nc3ccccc3c-2cc2ccccc21 [NEOCRYPTOLEPINE] | 3190 nM
Cn1c2nc3ccccc3c-2c(NCCCN2C(=O)CSC2c2ccc(Cl)cc2)c2ccccc21 (stereo unspecified) | 3470 nM
Cn1c2nc3ccccc3c-2c(NCCCN2C(=O)CCSC2c2ccc(Cl)cc2)c2ccccc21 (stereo unspecified) | 3360 nM
CN(C)c1ccc(C2SCC(=O)N2CCCNc2c3c4ccccc4nc-3n(C)c3ccccc23)cc1 (stereo unspecified) | 3550 nM
Cn1c2nc3ccccc3c-2c(NCCCN2C(=O)c3ccccc3SC2c2ccc(Cl)cc2)c2ccccc21 (stereo unspecified) | 1100 nM

System: Plasmodium falciparum
Assay: microbe, parasite or virus in culture
Conditions: NF54
Description: Antimalarial activity against chloroquine-sensitive Plasmodium falciparum NF54 after 72 hrs by [3H]hypoxanthine incorporation assay

Structure (SMILES) | IC50
Cn1c2nc3ccccc3c-2c(NCCCNS(=O)(=O)c2ccccc2)c2ccccc21 | 63 nM
Cn1c2nc3ccccc3c-2c(NCCCNC(=O)Nc2ccccc2)c2cc(F)ccc21 | 24.9 nM
Cn1c2nc3ccccc3c-2c(NCCCNC(=O)Nc2ccccc2)c2cc(C(F)(F)F)ccc21 | 4.1 nM
Cn1c2nc3ccccc3c-2c(NCCCNC(=O)Nc2ccccc2)c2cc(Br)ccc21 | 4 nM
Cn1c2nc3ccccc3c-2c(NCCCNC(=O)Nc2ccccc2)c2ccccc21 | 21.3 nM
Cn1c2nc3ccccc3c-2c(NCCCNC(=S)Nc2ccccc2)c2ccccc21 | 9.1 nM
Cn1c2nc3ccccc3c-2c(NCCCN2C(=O)CCSC2c2ccc(F)cc2)c2ccccc21 (stereo unspecified) | 38.1 nM
Cn1c2nc3ccccc3c-2c(NCCCNC(=O)Nc2ccccc2)c2cc(Cl)ccc21 | 2.2 nM
Cn1c2nc3ccccc3c-2cc2ccccc21 [NEOCRYPTOLEPINE] | 1580 nM
Cn1c2nc3ccccc3c-2c(NCCCN2C(=O)CSC2c2ccc(Cl)cc2)c2ccccc21 (stereo unspecified) | 63.9 nM
Cn1c2nc3ccccc3c-2c(NCCCN2C(=O)CCSC2c2ccc(Cl)cc2)c2ccccc21 (stereo unspecified) | 52.4 nM
CN(C)c1ccc(C2SCC(=O)N2CCCNc2c3c4ccccc4nc-3n(C)c3ccccc23)cc1 (stereo unspecified) | 54.9 nM
Cn1c2nc3ccccc3c-2c(NCCCN2C(=O)c3ccccc3SC2c2ccc(Cl)cc2)c2ccccc21 (stereo unspecified) | 26.6 nM

Reference: ChEMBL document CHEMBL2321781, “Synthesis and in vitro antimalarial testing of neocryptolepines: SAR study for improved activity by introduction and modifications of side chains at C2 and C11 on indolo[2,3-b]quinolines” (J Med Chem, 2013)
